Bounds are passed on as bounds.

In series [1] the target is T1, human histamine H3 receptor (Homo sapiens, UniProt Q9Y5N1).
T1 construct: expressed in transfected cells
The series can be described thus: Competition binding assay using [125I]iodoproxifan, cell lines stably expressing human histamine H3 receptor. The method, then: The in vitro affinity of unlabelled Compound A for the histamine H3 receptor was determined by competition assay using [^125I]iodoproxifan as radioligand binding to cell lines stably expressing human histamine H3 receptor.^13

Series [2] concerns histamine H3 receptor. The series can be described thus: PET imaging with pharmacological challenges (blocking of Compound A uptake). The format is in vivo, pig. Here is the method: Four sequential high specific activity iv radioligand Compound A administrations were performed in same animal, same day. Following a baseline scan, Compound A was co-administered with escalating dose of unlabelled unlabelled compound A (0.005, 0.05 and 0.5 mg/kg). [^15O]CO and [^15O]H2O were administered pre and post administration of unlabelled compound A to monitor and to correct for changes in cerebral blood volume and changes in cerebral blood flow. […] A similar experiment was performed using escalating dose of ciproxifan (0.006, 0.06, 0.6 and 2.0 mg/kg), a known selective histamine H3 antagonist.

The target of another series is Human receptor H1 (Homo sapiens, UniProt P35367). The series can be described thus: Binding affinity, human H1 receptor. Conditions: read-out: Binding affinity (pKi), human H1 (converted).
The target in the next series is Human receptor H4 (Homo sapiens, UniProt Q9H3N8). The series can be described thus: Binding affinity, human H4 receptor. Conditions: read-out: Binding affinity (pKi), human H4 (converted).
The next series concerns the target Human receptor H2 (Homo sapiens, UniProt P25021). The series can be described thus: Binding affinity, human H2 receptor. The note with it: read-out: Binding affinity (pKi), human H2 (converted).
The subject of a further series is histamine H3 receptors. The note with it: prior art radioligands; cited from earlier work.
Series [3] has as its system histamine H3 receptor. The series can be described thus: PET imaging with Compound A in pig brain. The format is in vivo. The method, then: The animals (pig, Yorkshire/Danish Landrace (˜40 Kg; n=2) were housed singly in thermostatically controlled (20° C.) and naturally illuminated stalls. They were scanned under terminal anaesthesia (ketamine induced isoflurane anaesthesia) on different days. The left femoral artery and vein of each animal were surgically cannulated using catheters (Avanti® size 4F-7F). Blood samples were collected from the femoral artery and the radiolabelled and non-labelled agents were injected to the femoral vein. Animals were placed supine in a Siemens ECAT EXACT HR tomograph, with the head immobilized in a custom-made holding device. During the study, blood pH, pCO2 and pO2 levels were monitored and maintained within the normal physiological range. In addition, BP and heart rate were recorded throughout the study. Compound A was administered intravenously in the femoral vein as a 1 minute bolus injection. PET scanning and arterial blood sampling was commenced upon start of the radioligand administration.

Setting [4] is: 2.0 mg/kg ciproxifan, 85 min post-injection.

T1 sequence (Q9Y5N1 whole entry): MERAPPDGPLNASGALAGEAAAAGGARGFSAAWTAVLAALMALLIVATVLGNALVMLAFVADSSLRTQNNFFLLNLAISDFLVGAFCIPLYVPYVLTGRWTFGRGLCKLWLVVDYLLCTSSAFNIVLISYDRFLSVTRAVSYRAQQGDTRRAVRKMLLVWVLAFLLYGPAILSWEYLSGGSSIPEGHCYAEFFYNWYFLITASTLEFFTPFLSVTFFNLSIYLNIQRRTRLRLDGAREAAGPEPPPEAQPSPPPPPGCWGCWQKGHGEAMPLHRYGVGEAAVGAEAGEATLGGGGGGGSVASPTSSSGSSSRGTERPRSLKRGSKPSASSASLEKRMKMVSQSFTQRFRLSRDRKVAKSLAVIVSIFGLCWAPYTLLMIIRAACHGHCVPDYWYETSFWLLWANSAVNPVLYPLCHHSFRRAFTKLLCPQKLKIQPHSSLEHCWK
Chain of Human receptor H1 (P35367 whole entry): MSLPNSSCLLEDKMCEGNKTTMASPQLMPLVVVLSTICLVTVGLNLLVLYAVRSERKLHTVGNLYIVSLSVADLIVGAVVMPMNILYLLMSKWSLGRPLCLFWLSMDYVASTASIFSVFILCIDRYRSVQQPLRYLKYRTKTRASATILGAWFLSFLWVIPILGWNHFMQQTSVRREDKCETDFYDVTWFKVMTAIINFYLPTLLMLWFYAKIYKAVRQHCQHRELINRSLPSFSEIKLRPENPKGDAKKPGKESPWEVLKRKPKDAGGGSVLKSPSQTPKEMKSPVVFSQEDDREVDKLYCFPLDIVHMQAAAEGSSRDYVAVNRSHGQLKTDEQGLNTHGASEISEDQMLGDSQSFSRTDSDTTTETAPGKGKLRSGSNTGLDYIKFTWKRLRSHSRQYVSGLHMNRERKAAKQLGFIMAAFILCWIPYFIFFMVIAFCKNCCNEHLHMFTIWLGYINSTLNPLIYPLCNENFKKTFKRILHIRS
Chain of Human receptor H2 (P25021 whole entry): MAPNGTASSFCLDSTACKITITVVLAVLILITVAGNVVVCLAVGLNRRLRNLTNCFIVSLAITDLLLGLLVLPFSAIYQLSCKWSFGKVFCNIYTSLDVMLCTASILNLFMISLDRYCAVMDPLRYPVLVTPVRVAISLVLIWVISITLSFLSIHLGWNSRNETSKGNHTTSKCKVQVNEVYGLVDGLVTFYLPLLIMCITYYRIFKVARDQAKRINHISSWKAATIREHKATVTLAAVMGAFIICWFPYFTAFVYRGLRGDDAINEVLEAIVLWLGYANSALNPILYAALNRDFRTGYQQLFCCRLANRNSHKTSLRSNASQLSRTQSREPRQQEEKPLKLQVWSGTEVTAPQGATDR
Chain of Human receptor H4 (Q9H3N8 whole entry): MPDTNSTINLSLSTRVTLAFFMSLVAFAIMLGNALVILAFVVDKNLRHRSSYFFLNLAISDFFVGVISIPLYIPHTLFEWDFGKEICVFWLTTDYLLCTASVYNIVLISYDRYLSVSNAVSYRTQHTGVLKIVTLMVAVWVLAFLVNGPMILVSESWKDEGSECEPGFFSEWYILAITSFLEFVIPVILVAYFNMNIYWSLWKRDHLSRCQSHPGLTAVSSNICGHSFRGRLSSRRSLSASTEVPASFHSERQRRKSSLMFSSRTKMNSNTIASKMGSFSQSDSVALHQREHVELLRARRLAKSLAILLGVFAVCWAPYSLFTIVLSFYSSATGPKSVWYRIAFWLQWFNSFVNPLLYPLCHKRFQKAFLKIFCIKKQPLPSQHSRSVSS

For `CNC(=O)c1ccc(Oc2ccc3c(c2)CCN(C2CCC2)CC3)nc1` [unlabelled Compound A], the “Selectivity over other receptors” value in series [1] (H3 versus other receptors) is reported as “high selective over other receptors”. Further, the Ki in series [1] ([125I]iodoproxifan as radioligand, read-out: Binding affinity (pKi), human H3 (converted)) is 0.257 nM; on Human receptor H1, 2510 nM; on Human receptor H4, more than 3160 nM; at Human receptor H2, more than 3160 nM. Further, in the series with histamine H3 receptor [2] (co-administered at 0.005, 0.05 and 0.5 mg/kg), the “Effect on specific uptake of radiotracer Compound A” value is “specific uptake of radiotracer was blocked”.
Turning to `O=C(c1ccc(OCCCc2cnc[nH]2)cc1)C1CC1` [ciproxifan], in the series on histamine H3 receptor [2] (setting [4]), the “Ratio tissue to cerebellum of Compound A, frontal cortex” value came to 1.08; the “Ratio tissue to cerebellum of Compound A, occipital cortex” value turned out to be 0.99; the “Ratio tissue to cerebellum of Compound A, parietal cortex” value came out at 0.91; the “Ratio tissue to cerebellum of Compound A, striatum” value was 1.22. Besides, in the series on histamine H3 receptor [2] (setting [4]), the “Ratio tissue to cerebellum of Compound A, thalamus” value was 0.72. For the same molecule, the “Effect on Compound A uptake in H3-rich brain regions” value with histamine H3 receptor [2] (escalating dose 0.006, 0.06, 0.6 and 2.0 mg/kg) is “dose-dependent decrease”.
Take `[123I]c1ccc(COCCCc2cnc[nH]2)cc1` [[^123I]iodoproxifan]: the “Alteration of brain distribution by selective H3 receptor ligand” value with histamine H3 receptors is reported as “no significant alteration of the brain distribution by selective H3 receptor ligand”.
For the molecule `[11CH3]NC(=O)c1ccc(Oc2ccc3c(c2)CCN(C2CCC2)CC3)nc1` [Compound A, [^11C-N-methyl]-6-(3-cyclobutyl-2,3,4,5-tetrahydro-1H-benzo[d]azepin-7-yloxy)-nicotamide], the Concentration in cerebellum entry in the series on histamine H3 receptor [3] was “low”. Besides, in the series with histamine H3 receptor [3] (85 min, baseline), the “Ratio relative to cerebellum, frontal cortex” value was found to be 5.3; the “Ratio relative to cerebellum, occipital cortex” value is 3.8; the “Ratio relative to cerebellum, parietal cortex” value turned out to be 4.9; the “Ratio relative to cerebellum, striatum” value was 9.0. For the same molecule, the “Ratio relative to cerebellum, thalamus” value in the series with histamine H3 receptor [3] (85 min, baseline) is recorded as 3.4. In addition, the “Time of peak brain uptake of radioactivity” value in the series with histamine H3 receptor [3] (after administration of the radiotracer) is on record as 25 min. For the same molecule, in the series with histamine H3 receptor [3] (higher accumulation in striatum, cortices, thalamus, hypothalamus), the Regional brain distribution entry is listed as “reflected the known distribution of the histamine H3 receptor”. The Brain entry entry in the series with histamine H3 receptor [3] (iv 1 minute bolus) is reported as “readily enters the pig brain”.
